Patent US8268893B2, “Use of dapsone as a neuroprotector in cerebral infarction” (Universidad Autonoma Metropolitana, priority 2003, dated 2012)
“And” between values parts separate entries of the source, which are not always exact repeats. Identical values can stand only once.

Key:
[1] = tested on: brain stroke model produced by occlusion of the middle cerebral artery; assay: Neurological functional scale in rats after permanent occlusion of the middle cerebral artery; type: in vivo, rat
Description: Dapsone was evaluated as neuroprotector in the brain stroke model produced by occlusion of the middle cerebral artery. The drug was suspended in a suitable vehicle.
3 groups of 5 animals each were treated with: Saline isotonic solution (551, control group), Dapsone (12.5 mg/kg) and Dapsone (9.375 mg/kg) injected by intraperitoneal route, 30 minutes after the occlusion of the middle cerebral artery, as described below.
The permanent selective brain ischemic was produced in the animals through introducing a suture thread intraluminal through the carotid artery. All animals received continuous anesthesia during the surgical procedure with halotane 1.5%, through a face mask. […]
During the 96 hours after the ischemic procedure, the animals were neurologically evaluated using a functional scale, each 24 hours.
For the neurological scale and percentage of the lesion volume in rats, the statistical significance was determined with the Kruskal-Wallis test, followed by the U test of MannWhitney.
The results of the neurological evaluation in rats are shown in FIG. 1, where the scores of the neurological test as a function of time can be observed, after producing the stroke in the rats. The results are expressed as the average of 4 independent experiments. […]

[2] = tested on: brain stroke model produced by occlusion of the middle cerebral artery; assay: Ischemic lesion volume (histology) in rats 96 hours after occlusion of the middle cerebral artery; type: in vivo, rat; conditions: for reduction of ischemic lesion volume in comparison with the control group: 96 hours
Description: Dapsone was evaluated as neuroprotector in the brain stroke model produced by occlusion of the middle cerebral artery. The drug was suspended in a suitable vehicle. 3 groups of 5 animals each were treated with: Saline isotonic solution (551, control group), Dapsone (12.5 mg/kg) and Dapsone (9.375 mg/kg) injected by intraperitoneal route, 30 minutes after the occlusion of the middle cerebral artery, as described below. The permanent selective brain ischemic was produced in the animals through introducing a suture thread intraluminal through the carotid artery. All animals received continuous anesthesia during the surgical procedure with halotane 1.5%, through a face mask. Animals were placed in dorsal decubitus position, fixed and shaved in the anterior cervical region to make an incision in the middle line from the sternum towards the region of the sternohiodeous muscle, to its side rim, identifying in this side the middle rim of the sternocleidomastoideus and the superficial cervical aponeurosis in its deep leaf, same that was cut to leave exposed the common carotid blow and inside the caudal belly of the digastric. A cutting dissection of the common carotid was performed, until the hypoglose loop. The carotid bifurcation was identified, external carotid and its occipital and thyroid branches, the two latter were joined with mono-filament of 8-0 as well as with electrocoagulation for its later cut. The internal carotid was dissected in a length of approximately 5 mm and at that time the pterigo-palatine artery was identified. A microchip was placed or it was joined with mono-filament 6-0. Once the flux was stopped through these artery affluent, the mono-filament nylon 3-0 was introduced towards the internal carotid artery, through the stub of the external carotid artery, for a length of 17 mm as of the bifurcation. The wound was closed, and the animal was left to recover, with water and food ad libitum. In all cases, ischemia was verified by macroscopic observation and for the position of the thread. At the end of the 96 hours of observation, animals were sacrificed with an overdose of sodium pentobarbital by intraperitoneal route, and their brains were extracted by craniectomy. Once extracted, the brains were fixed with anhydrous alcohol during two weeks. The usual histological process was performed, as well as sections of 10 μm, storing a section each 200 μm. […] The area of each tissue section was determined using a digital analysis system and a photographic amplifier. […] Each section was assessed for 3 determinations: A) total area, including ventriculus B) Ventricular area C) Ischemic area, according to the pathologist's review. […] The results are expressed as the average+/-standard error of 4 independent experiments.

[3] = tested on: patients with acute brain stroke for thrombo-embolism; assay: Randomized, double-blind, placebo-controlled clinical trial in patients with acute brain stroke, NIH scale; type: in vivo, human
Description: This study evaluated the neuroprotector effect of dapsone in patients that, having suffered an acute brain stroke for thrombo-embolism, were admitted to the Emergency Services of the National Institute of Neurology and Neurosurgery “Manuel Velasco Suarez”. Dapsone was administered in a single dose of 200 mg in suspension, orally. […] Dapsone was administered blinded to 15 patients, while other 15 patients were administered with an anti-acid suspension, as a placebo medication. Patients were randomly allocated into one of the treatment groups, using random numbers, generated by a pocket calculator. Both medications were administered during the first twelve hours after the brain stroke. As result of these procedures, the clinical trial was randomized, double-blind and placebo-controlled. The evaluation of clinical signs and symptoms was performed in blind by an expert neurologist, with the NIH scale, that quantifies the intensity of disabilities caused by the brain stroke. Said scale was applied at the time the patient entered the study (day zero) and 2, 6 and 30 days after the brain stroke. A stroke is considered as moderately severe or severe, when the NIH rated a value higher than seven. The NIH scale results in the two groups of patients were statistically analyzed with analysis of variance analysis (ANOVA) using as co-variables the NIH scale at the admittance day (day zero), as well as the gender, age, blood pressure and other important clinical variables for the patient's performance. The results in patients with acute thrombo-embolic brain stroke, are shown in FIG. 3, which presents the scores of the neurological scale (NIH) as a function of time (in days) after administering dapsone or the placebo. The results are expressed as the average of 15 patients per group +/−the standard error.

[4] = Stability of dapsone oral suspension; type: physicochemical; conditions: refrigeration at 4° C.

Nc1ccc(S(=O)(=O)c2ccc(N)cc2)cc1 [dapsone]
reduction in the severity of the neurological symptoms in comparison with the control group [1]: 50% | recovery from the ischemic lesion in the neurological test compared to the control group ([1]; 9.375 and 12.5 mg/kg ip, evaluated each 24 hours for 96 hours, p<0.05): recovered better from the ischemic lesion, significantly | reduction of ischemic lesion volume in comparison with the control group ([2]; 9.375 mg/kg ip 30 minutes after occlusion): 93% | reduction of ischemic lesion volume in comparison with the control group ([2]; 12.5 mg/kg ip 30 minutes after occlusion, 12.5 mg/kg): 91% and 90% | efficacy to reduce the volume of brain damage produced by the stroke ([2]; dose of 9.325 mg/kg): 93% | side effects ([3]; for the dose used): No side effects | effective dose ([3]; model not stated, printed after the patient result): 0.013 mmol/kg | clinical improvement (in words) ([3]; patients, 200 mg orally): significant clinical improvement | clinical improvement of neurological symptoms (NIH scale), in average ([3]; patients, single 200 mg oral dose within first twelve hours after stroke): 67% | stability of the suspension [4]: stable in refrigeration at 4° C., for up to one month
